Data reported in patent US7504522B2, “Azetidinecarboxamide derivatives and their use in the treatment of cb1 receptor mediated disorders” (Vernalis Research Limited, priority 2003, dated 2009).

Experiments:
[1] = target: T1, recombinant human CB1 receptors (Homo sapiens, UniProt P21554); assay: Binding to CB1 receptors; conditions: [^3H]-SR-141716A 1 nM; membranes from HEK293 cells expressing recombinant hCB1; Ki calculated from IC50 by Cheng-Prusoff
T1 construct: expressed in transfected cells; host or cells: HEK293 cells (membranes)
T1 sequence (P21554 whole entry): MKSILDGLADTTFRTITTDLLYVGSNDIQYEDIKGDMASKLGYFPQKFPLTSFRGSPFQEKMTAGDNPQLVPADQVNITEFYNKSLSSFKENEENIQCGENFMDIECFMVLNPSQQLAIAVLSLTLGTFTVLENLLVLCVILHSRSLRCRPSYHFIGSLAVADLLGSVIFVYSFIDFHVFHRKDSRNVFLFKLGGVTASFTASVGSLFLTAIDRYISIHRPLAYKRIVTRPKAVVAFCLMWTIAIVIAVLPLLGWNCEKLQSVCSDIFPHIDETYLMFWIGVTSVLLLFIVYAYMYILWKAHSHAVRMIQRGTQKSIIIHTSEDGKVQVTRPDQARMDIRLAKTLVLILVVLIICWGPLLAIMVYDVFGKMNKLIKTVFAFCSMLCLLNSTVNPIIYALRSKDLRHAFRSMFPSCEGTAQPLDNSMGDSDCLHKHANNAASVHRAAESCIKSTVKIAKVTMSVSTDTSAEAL
Protocol: The binding of compounds of Formula I to recombinant human CB1 receptors was determined in vitro by standard methods, with reference to the procedure described by Rinaldi-Carmona et al. (Rinaldi-Camona, M., Pialot, F., Congy, C., Redon, E., Barth, F., Bachy, A., Breliere, J. C., Soubre, P., LeFur, G., Life Sci. 1996, 58(15), 1239-1247). Membranes were prepared from HEK293 cells expressing recombinant hCB1 receptors. Binding assays are performed in a total volume of 250 μL, containing [^3H]—SR-141716A (1 nM final concentration), membranes and test compound. Non-specific binding is determined using CP55,940 (10 μM). Serial dilutions are performed starting from test compounds as 10 mM solutions in DMSO. Compounds are tested over the concentration range 10^−10 M to 10^−5 M. Ki values are calculated from IC50 values using the Cheng-Prusoff equation.

male C57B1/6 mice = assay: Blockade of Δ^9-THC induced hypolocomotion in mice; type: in vivo; conditions: p.o.; antagonism of reduction in locomotor behaviour induced by 3 mg/kg i.p. Δ^9-THC
Protocol: The in vivo activity of compounds of formula (I) was assayed for ability to antagonise the reduction in locomotor behaviour induced by acute systemic administration of Δ^9-THC in male C57B1/6 mice. The procedure was as follows.
Test compounds are assessed following acute oral or intraperitoneal administration at a dose of 30 mg/kg.
The route of test compound administration, drug volume and injection-test-interval are dependent upon the compounds used. 10 min before testing, a 3 mg/kg dose Δ^9-THC (or vehicle) is administered to mice by the i.p. route. […] The light beams are arranged on a 7 by 4 matrix on a metal grid. 16 grids are connected in series and Perspex boxes, 20 (width)×40 (length)×20 (height) cm, with a flat perforated, Perspex lid are placed in each grid. Mice are placed singly in Perspex boxes and the recording of activity in all 16 boxes starts simultaneously. The mice are left undisturbed to explore the novel activity monitor boxes for 15 minutes while beam breaks are recorded.
Locomotor activity data are subjected to one-way analysis of variance (ANOVA) with drug treatment as a between-subjects factor. […] Significant differences between the vehicle/Δ^9-THC group and Test compound/Δ^9-THC groups are assessed by Newman-Keuls test. All statistical analyses were performed using Statistica Software, Version 6.0 (Statsoft Inc.) and Microsoft Excel 7.0 (Microsoft Corp.).

[2] = system: male food-deprived Lister-hooded rats; assay: Regulation of feeding behaviour (food consumption); type: in vivo; conditions: p.o.; acute administration; food consumption after 18-hour food withdrawal
Protocol: The in vivo activity of compounds of formula (I) was assayed for ability to regulate feeding behaviour by measuring food consumption in male food-deprived Lister-hooded rats as follows.
Test compounds are assessed following acute administration.
The anorectic drug sibutramine, or the reference CB1 receptor antagonist, SR141716A, normally serves as a positive control. The route of drug administration, drug volume and injection-test-interval are dependent upon the compounds used. The injection-test-interval is the time between dosing and food re-presentation. Typically, animals are fasted such that at the time of food re-presentation food has been withdrawn for an 18-hour period. Food consumption is assayed at pre-determined time points (typically 1, 2 and 4 hours after administration). Food intake data are subjected to one-way analysis of variance (ANOVA) with drug as a between-subjects factor. […] All statistical analyses were performed using Statistica Software, Version 6.0 (Statsoft Inc.) and Microsoft Excel 7.0 (Microsoft Corp.).

| SMILES | Ki [1] | Active dose (mg/kg), route (male C57B1/6 mice) | M.E.D (mg/kg), route [2] |
| --- | --- | --- | --- |
| O=C(NC12CC3CC(CC(C3)C1)C2)N1CC(OC(c2ccc(Cl)cc2)c2ccc(Cl)cc2)C1 [Example 30, 3-(4,4′-dichlorobenzhydryloxy)-N-(1-adamantyl)azetidine-1-carboxamide] | 19 nM |  |  |
| CC(C)(C)NC(=O)N1CC(OC(c2ccc(Cl)cc2)c2ccc(Cl)cc2Cl)C1 (centres unmarked) [Example 1, 3-(2,4,4′-trichlorobenzhydryloxy)-N-(tert-butyl)azetidine-1-carboxamide] | 4.7 nM | 30, p.o. mg/kg | 30, p.o. mg/kg |
| CC(C)(C)NC(=O)N1CC(OC(c2ccc(Cl)cc2)c2ccccc2Cl)C1 (centres unmarked) [Example 4, 3-(2,4′-dichlorobenzhydryloxy)-N-(tert-butyl)azetidine-1-carboxamide] | 4.5 nM | 30, p.o. mg/kg | 30, p.o. mg/kg |
| CC(C)(C)NC(=O)N1CC(OC(c2ccc(Cl)cc2)c2ccccc2C(F)(F)F)C1 (racemic) [Example 81, 3-[2-(trifluoromethyl)-4′-chlorobenzhydryloxy]-N-(tert-butyl)azetidine-1-carboxamide] | 2.3 nM | 30, p.o. mg/kg | 3, p.o. mg/kg |
| CC(C)(C)NC(=O)N1CC(OC(c2ccc(Cl)cc2)c2ccccc2C(F)(F)F)C1 (single isomer, unassigned) [Example 139, 3-[(R*)-2-(trifluoromethyl)-4′-chlorobenzhydryloxy]-N-(tert-butyl)-azetidine-1-carboxamide] | 0.6 nM |  | 1, p.o. mg/kg |
| CC(C)(C)NC(=O)N1CC(OC(c2ccc(Cl)cc2)c2ccc(Cl)cc2)C1 [Example 28, 3-(4,4′-dichlorobenzhydryloxy)-N-(tert-butyl)azetidine-1-carboxamide] | 80 nM |  |  |
| CC(C)(C)NC(=O)N1CC(OC(c2ccc(S(C)(=O)=O)cc2)c2ccccc2C(F)(F)F)C1 (single isomer, unassigned) [Example 140, 3-[(S*)-2-(trifluoromethyl)-4′-(methylsulphonyl)benzhydryloxy]-N-(tert-butyl)azetidine-1-carboxamide] | 27 nM |  |  |
| CC(C)(C)NC(=O)N1CC(OC(c2ccc(Br)cc2F)c2ccccc2C(F)(F)F)C1 (centres unmarked) [Example 94, 3-[2-(trifluoromethyl)-2′-fluoro-4′-bromobenzhydryloxy]-N-(tert-butyl)azetidine-1-carboxamide] | 1.3 nM | 30, p.o. mg/kg | 10, p.o. mg/kg |
